Assay [1] relates to NCI-H292 lung cancer cells. The assay can be described thus: FDA drug screening, complete media vs cholesterol-free media with simvastatin (TABLE 2). Type of assay: cell-based, human.
Assay [2] concerns NCI-H292 lung cancer cells. The assay is described as follows: FDA drug screening, complete media vs cholesterol-free media without statin (TABLE 1). The class given is cell-based, human.
[3] abbreviates: NCI-H292 cells, FDA library drug in cholesterol-free media with simvastatin 0.04 μM.
Where [4] appears, read: NCI-H292 cells, FDA library drug in complete media.
[5] abbreviates: complete media vs cholesterol-free media + simvastatin (0.04 μM), >0 enhanced anti-cancer activity, about 0 neutral, <0 antagonist.
The mark [6] stands for this setting: Complete minus Cholesterol-free, >0 enhanced anti-cancer activity, about 0 neutral, <0 antagonist.
The mark [7] stands for this setting: NCI-H292 cells, cholesterol-free media without statin, FDA drug library screen.
Setting [8] is: NCI-H292 cells, complete media, FDA drug library screen.
Where [9] appears, read: complete media vs cholesterol-free media + simvastatin (0.04 μM), […].
The mark [10] stands for this setting: Complete minus Cholesterol-free, […].
Where [11] appears, read: NCI-H292 cells in cholesterol-free media without statin.
[12] abbreviates: NCI-H292 cells in complete media.
[13] abbreviates: NCI-H292 cells, cholesterol-free media with simvastatin 0.04 μM, cell growth value in FDA drug screen.
[14] abbreviates: NCI-H292 cells, complete media, cell growth value in FDA drug screen.
Where [15] appears, read: complete media minus cholesterol-free media + simvastatin, >0 enhanced anti-cancer activity, about 0 neutral, <0 antagonist.
The mark [16] stands for this setting: Complete minus Cholesterol-free, greater than 0 enhanced anti-cancer activity, about 0 neutral, below 0 antagonist.
Where [17] appears, read: NCI-H292 cells, FDA drug library screen, cholesterol-free media without statin.
Where [18] appears, read: NCI-H292 cells, FDA drug library screen, complete media.
Where [19] appears, read: NCI-H292 cells, FDA drug library screen, cholesterol-free media with simvastatin 0.04 μM.
The mark [20] stands for this setting: complete vs cholesterol-free media, >0 enhanced anti-cancer activity, about 0 neutral, <0 antagonist.
Setting [21] is: NCI-H292 cells, drug in cholesterol-free media with simvastatin 0.04 μM.
The mark [22] stands for this setting: NCI-H292 cells, drug in complete media.
Where [23] appears, read: NCI-H292 cells, cholesterol-free media with simvastatin 0.04 μM, FDA drug library screen (TABLE 2).
Where [24] appears, read: NCI-H292 cells, complete media, FDA drug library screen (TABLE 2).
Setting [25] is: complete media minus cholesterol-free media + simvastatin (0.04 μM), >0 enhanced anti-cancer activity, about 0 neutral, <0 antagonist.
Setting [26] is: NCI-H292 cells, cholesterol-free media without statin.
The mark [27] stands for this setting: complete vs cholesterol-free media, greater than 0 enhanced anti-cancer activity, about 0 neutral, below 0 antagonists.

Where a name gives a salt, the structure may show the parent alone. Read-outs that look alike come from different tables or passages of the source.

Consider `CC(C)NC[C@@H](O)COc1ccc(CC(N)=O)cc1` [(R)-(+)-Atenolol], for which, in assay [1] (setting [3]), the “Cholesterol-free media + simvastatin (0.04 μM)” value is recorded as 1.166. Moreover, the “Complete Media” value in assay [1] (setting [4]) turned out to be 0.872. In addition, the values for the Difference in assay [1] (setting [5]) and in assay [2] (setting [6]) were −0.29 and 0.07, respectively. The molecule also returned a Cholesterol-free in assay [2] (setting [7]) of 0.8467. Moreover, the Complete in assay [2] (setting [8]) amounted to 0.9214.
As to Sodium tauroglycocholate, in assay [1] (setting [3]), the “Cholesterol-free media + simvastatin (0.04 μM)” value came to 1.256. In addition, the “Complete Media” value in assay [1] (setting [4]) is recorded as 0.9729. Moreover, the Difference in assay [1] (setting [9]) is −0.28; in assay [2] (setting [10]), −0.95. The same molecule gave a Cholesterol-free in assay [2] (setting [11]) of 1.712. The molecule also displayed a Complete in assay [2] (setting [12]) of 0.7634.
On to `CN(C)CCN(Cc1ccc(Cl)cc1)c1ccccn1` [Chloropyramine hydrochloride], for which, in assay [1] (setting [13]), the “Cholesterol-free media + simvastatin (0.04 μM)” value was 0.999. For the same molecule, the “Complete Media” value in assay [1] (setting [14]) stood at 1.055. In addition, the Difference is recorded as 0.06 in assay [1] (setting [15]) and −0.17 in assay [2] (setting [16]). In assay [2] (setting [17]), this molecule yielded a Cholesterol-free of 1.558. Further, the Complete in assay [2] (setting [18]) came out at 1.385.
For the molecule `COc1cc2ncnc(Nc3ccc(F)c(Cl)c3)c2cc1OCCCN1CCOCC1` [Gefitinib (hydrochloride)], the “Cholesterol-free media + simvastatin (0.04 μM)” value in assay [1] (setting [19]) stood at 0.9234. Moreover, the “Complete Media” value in assay [1] (setting [18]) came out at 0.8455. In addition, the Difference in assay [1] (setting [5]) is −0.08; in assay [2] (setting [20]) it was 0.22. This molecule also returned a Cholesterol-free in assay [2] (setting [7]) of 0.6497. Besides, the Complete in assay [2] (setting [8]) is listed as 0.8718.
Take `CC/C=C\C/C=C\C/C=C\C/C=C\C/C=C\C/C=C\CCC(=O)O` [Docosahexaenoic Acid]: the “Cholesterol-free media + simvastatin (0.04 μM)” value in assay [1] (setting [21]) was 1.034. Moreover, the “Complete Media” value in assay [1] (setting [22]) was 0.8041. The Difference in assay [1] (setting [5]) is reported as −0.23; in assay [2] (setting [20]) it was 0.59. Moreover, the Cholesterol-free in assay [2] (setting [7]) is 1.175. Further, the Complete in assay [2] (setting [8]) came out at 1.764.
Regarding `O=C(O)CCCC[C@@H]1SC[C@@H]2NC(=O)N[C@@H]21` [Biotin], in assay [1], the “Cholesterol-free media + simvastatin (0.04 μM)” value was determined as 1.06, the “Complete Media” value was 0.9767 and the Difference is reported as −0.08. In assay [2], this molecule had a Cholesterol-free of 1.067, a Complete of 0.6067 and a Difference of −0.46.
Consider Imatinib (Mesylate), for which, in assay [1] (setting [19]), the “Cholesterol-free media + simvastatin (0.04 μM)” value is reported as 1.089. Besides, in assay [1] (setting [18]), the “Complete Media” value was 0.9411. For the same molecule, the Difference in assay [1] (setting [5]) is −0.15; in assay [2] (setting [20]), 0.45. The Cholesterol-free in assay [2] (setting [7]) worked out at 0.5677. The molecule further displayed a Complete in assay [2] (setting [8]) of 1.017.
On to Vincristine (sulfate), for which the “Cholesterol-free media + simvastatin (0.04 μM)” value in assay [1] (setting [23]) came out at 0.1488. For the same molecule, the “Complete Media” value in assay [1] (setting [24]) was 0.1119. The Difference in assay [1] (complete media minus cholesterol-free media + simvastatin (0.04 μM), […]) is −0.04; in assay [2] (setting [10]), 0.02. The molecule also returned a Cholesterol-free in assay [2] (setting [7]) of 0.04497. The Complete in assay [2] (setting [8]) is reported as 0.06722.
Regarding `Oc1cccc(-c2c3nc(c(-c4cccc(O)c4)c4ccc([nH]4)c(-c4cccc(O)c4)c4nc(c(-c5cccc(O)c5)c5ccc2[nH]5)CC4)C=C3)c1` [Temoporfin], the “Cholesterol-free media + simvastatin (0.04 μM)” value in assay [1] (setting [19]) came out at 0.6286. For the same molecule, the “Complete Media” value in assay [1] (setting [18]) turned out to be 0.9208. Besides, the Difference in assay [1] (setting [15]) is 0.29; in assay [2] (setting [16]) it was −0.10. In assay [2] (setting [17]), this molecule showed a Cholesterol-free of 0.848. In addition, the Complete in assay [2] (setting [18]) came to 0.7514.
Regarding `C#C[C@]1(O)CC[C@H]2[C@@H]3CCc4cc(O)ccc4[C@H]3CC[C@@]21C` [Ethynyl Estradiol], the “Cholesterol-free media + simvastatin (0.04 μM)” value in assay [1] (setting [21]) is 1.254. Moreover, the “Complete Media” value in assay [1] (setting [22]) was found to be 1.055. The results for the Difference in assay [1] (setting [5]) and in assay [2] (setting [20]) were −0.20 and 0.52, respectively. In addition, in assay [2] (setting [7]), the Cholesterol-free was 0.8735. For the same molecule, the Complete in assay [2] (setting [8]) is on record as 1.393.
For `CC(=O)O[C@]1(C(C)=O)CC[C@H]2[C@@H]3CCC4=CC(=O)CCC4=C3[C@@H](c3ccc(N(C)C)cc3)C[C@@]21C` [Ulipristal acetate], the “Cholesterol-free media + simvastatin (0.04 μM)” value in assay [1] (setting [23]) stood at 0.6984. In assay [1] (setting [24]), the “Complete Media” value is on record as 0.695. In addition, the Difference in assay [1] (setting [25]) is 0.00; in assay [2] (setting [27]) it was −0.31. The molecule also came in with a Cholesterol-free in assay [2] (setting [26]) of 1.13. Also, the Complete in assay [2] (NCI-H292 cells, complete media) is 0.8186.
Consider Eliglustat (hemitartrate), for which the “Cholesterol-free media + simvastatin (0.04 μM)” value in assay [1] (setting [21]) came to 0.9268. Also, the “Complete Media” value in assay [1] (setting [22]) turned out to be 0.7576. The Difference in assay [1] (setting [9]) is −0.17; in assay [2] (setting [10]), −0.24. The molecule further yielded a Cholesterol-free in assay [2] (setting [26]) of 0.8345. This molecule also returned a Complete in assay [2] (NCI-H292 cells, complete media) of 0.5954.
For the molecule `C[C@@H]1CCO[C@H]2Cn3cc(C(=O)NCc4ccc(F)cc4F)c(=O)c(O)c3C(=O)N12` [Dolutegravir (sodium)], the “Cholesterol-free media + simvastatin (0.04 μM)” value in assay [1] (setting [13]) amounted to 0.4489. Besides, in assay [1] (setting [14]), the “Complete Media” value turned out to be 0.5012. Moreover, the Difference in assay [1] (setting [15]) is listed as 0.05; in assay [2] (setting [6]) it was −0.20. Also, the Cholesterol-free in assay [2] (setting [26]) stood at 0.8373. The molecule further had a Complete in assay [2] (NCI-H292 cells, complete media) of 0.6354.
`CCCN1CC(NS(=O)(=O)N(CC)CC)CC2Cc3c(O)cccc3CC21` (centres unmarked) [Quinagolide (hydrochloride)]: the “Cholesterol-free media + simvastatin (0.04 μM)” value in assay [1] (setting [13]) came out at 0.9283. In addition, the “Complete Media” value in assay [1] (setting [14]) is 1.019. Also, the Difference is 0.09 in assay [1] (setting [15]) and −0.15 in assay [2] (setting [16]). The molecule further displayed a Cholesterol-free in assay [2] (setting [17]) of 1.129. Moreover, the Complete in assay [2] (setting [18]) amounted to 0.9753.
Take `C[N+]1(C)CCC(OC(=O)C(O)(c2ccccc2)C2CCCC2)C1` (centres unmarked) [Glycopyrrolate]: in assay [1] (setting [19]), the “Cholesterol-free media + simvastatin (0.04 μM)” value worked out at 2.314. Further, the Difference in assay [1] (setting [25]) is listed as −1.08; in assay [2] (setting [6]) it was 0.02. Besides, the Cholesterol-free in assay [2] (setting [7]) amounted to 0.8111. Further, in assay [2] (setting [8]), the Complete is given as 0.8296.
Take `CC(C)(C)NCC(O)COc1cccc2c1CCC(=O)N2` (centres unmarked) [Carteolol hydrochloride]: in assay [1] (setting [21]), the “Cholesterol-free media + simvastatin (0.04 μM)” value was found to be 1.125. Also, in assay [1] (setting [22]), the “Complete Media” value is recorded as 0.8865. In addition, the Difference in assay [1] (setting [5]) is −0.24; in assay [2] (setting [16]), −0.19. Also, the Cholesterol-free in assay [2] (setting [17]) was found to be 1.114. In addition, the Complete in assay [2] (setting [18]) came out at 0.9284.
On to `CCC(=O)O[C@]1(C(=O)SCF)[C@H](C)C[C@H]2[C@@H]3C[C@H](F)C4=CC(=O)C=C[C@]4(C)[C@@]3(F)[C@@H](O)C[C@@]21C` [Fluticasone (propionate)], for which the “Cholesterol-free media + simvastatin (0.04 μM)” value in assay [1] (setting [19]) is recorded as 0.7423. Further, in assay [1] (setting [18]), the “Complete Media” value is 0.6072. The Difference in assay [1] (setting [5]) is −0.14; in assay [2] (Complete minus Cholesterol-free, greater than 0 enhanced anti-cancer activity, about 0 neutral, below 0 antagonists) it was −0.60. In addition, in assay [2] (setting [11]), the Cholesterol-free stood at 1.466. This molecule also had a Complete in assay [2] (setting [12]) of 0.8611.
As for `COc1ccc(C(=O)N2CCCC2=O)cc1` [Aniracetam], the “Cholesterol-free media + simvastatin (0.04 μM)” value in assay [1] (setting [23]) is reported as 1.041. The “Complete Media” value in assay [1] (setting [24]) is 1.006. Also, the Difference in assay [1] (setting [25]) is recorded as −0.04; in assay [2] (setting [20]), 0.37. Further, in assay [2] (setting [7]), the Cholesterol-free is given as 0.69. In addition, in assay [2] (setting [8]), the Complete stood at 1.062.
Consider `Cc1c(Cl)cccc1Nc1ccccc1C(=O)O` [Tolfenamic Acid], for which the “Cholesterol-free media + simvastatin (0.04 μM)” value in assay [1] (setting [13]) is recorded as 0.9725. Also, in assay [1] (setting [14]), the “Complete Media” value is recorded as 0.9986. Besides, the Difference in assay [1] (setting [15]) was 0.03; in assay [2] (setting [27]), −0.40. In addition, the Cholesterol-free in assay [2] (setting [26]) came out at 1.332. In assay [2] (NCI-H292 cells, complete media), this molecule displayed a Complete of 0.9309.

These data come from patent US20250144067A1, “PERSONALIZED STARVATION THERAPY FOR CANCER” (Faeth Therapeutics, Inc., priority 2021, published 2025).
